From patent publication US9402398B2, “Herbicidal compounds” (SYNGENTA PARTICIPATIONS AG, priority 2012, dated 2016)

What was measured:
Assay type in all cases: in vivo
[1] = system: Alopecurus myosuroides (ALOMY); experiment: Herbicidal glasshouse test, post-emergence; conditions: post-emergence (sprayed after 8 days cultivation), 1000 g/h, evaluated after 13 days
Description: (§1) Seeds of a variety of test species are sown in standard soil in pots (Alopecurus myosuroides (ALOMY), Setaria faberi (SETFA), Echinochloa crus-galli (ECHCG), Solanum nigrum (SOLNI), Amaranthus retoflexus (AMARE), Ipomoea hederacea (IPOHE)). After cultivation for one day (pre-emergence) or after 8 days cultivation (post-emergence) under controlled conditions in a glasshouse (at 24/16° C., day/night; 14 hours light; 65% humidity), the plants are sprayed with an aqueous spray solution derived from the formulation of the technical active ingredient in acetone/water (50:50) solution containing 0.5% Tween 20 (polyoxyethelyene sorbitan monolaurate, CAS RN 9005-64-5). Compounds are applied at 1000 g/h. The test plants are then grown in a glasshouse under controlled conditions in a glasshouse (at 24/16° C., day/night; 14 hours light; 65% humidity) and watered twice daily. After 13 days for pre and post-emergence, the test is evaluated for the percentage damage caused to the plant. The biological activities are shown in the following table on a five point scale (5=80-100%; 4=60-79%; 3=40-59%; 2=20-39%; 1=0-19%).

[2] = system: Amaranthus retoflexus (AMARE); experiment: Herbicidal glasshouse test, post-emergence; conditions: post-emergence (sprayed after 8 days cultivation), 1000 g/h, evaluated after 13 days
Description: as §1

[3] = system: Echinochloa crus-galli (ECHCG); experiment: Herbicidal glasshouse test, post-emergence; conditions: post-emergence (sprayed after 8 days cultivation), 1000 g/h, evaluated after 13 days
Description: as §1

[4] = system: Ipomoea hederacea (IPOHE); experiment: Herbicidal glasshouse test, post-emergence; conditions: post-emergence (sprayed after 8 days cultivation), 1000 g/h, evaluated after 13 days
Description: as §1

Setaria faberi (SETFA) [5] = experiment: Herbicidal glasshouse test, post-emergence; conditions: post-emergence (sprayed after 8 days cultivation), 1000 g/h, evaluated after 13 days
Description: as §1

Solanum nigrum (SOLNI) [6] = experiment: Herbicidal glasshouse test, post-emergence; conditions: post-emergence (sprayed after 8 days cultivation), 1000 g/h, evaluated after 13 days
Description: as §1

[7] = system: Alopecurus myosuroides (ALOMY); experiment: Herbicidal glasshouse test, pre-emergence; conditions: pre-emergence (sprayed after cultivation for one day), 1000 g/h, evaluated after 13 days
Description: as §1

[8] = system: Amaranthus retoflexus (AMARE); experiment: Herbicidal glasshouse test, pre-emergence; conditions: pre-emergence (sprayed after cultivation for one day), 1000 g/h, evaluated after 13 days
Description: as §1

[9] = system: Echinochloa crus-galli (ECHCG); experiment: Herbicidal glasshouse test, pre-emergence; conditions: pre-emergence (sprayed after cultivation for one day), 1000 g/h, evaluated after 13 days
Description: as §1

[10] = system: Ipomoea hederacea (IPOHE); experiment: Herbicidal glasshouse test, pre-emergence; conditions: pre-emergence (sprayed after cultivation for one day), 1000 g/h, evaluated after 13 days
Description: as §1

Setaria faberi (SETFA) [11] = experiment: Herbicidal glasshouse test, pre-emergence; conditions: pre-emergence (sprayed after cultivation for one day), 1000 g/h, evaluated after 13 days
Description: as §1

Solanum nigrum (SOLNI) [12] = experiment: Herbicidal glasshouse test, pre-emergence; conditions: pre-emergence (sprayed after cultivation for one day), 1000 g/h, evaluated after 13 days
Description: as §1

SMILES	percentage damage caused to the plant, five point scale, POST Application ALOMY [1]	percentage damage caused to the plant, five point scale, POST Application AMARE [2]	percentage damage caused to the plant, five point scale, POST Application ECHCG [3]	percentage damage caused to the plant, five point scale, POST Application IPOHE [4]	percentage damage caused to the plant, five point scale, POST Application SETFA (Setaria faberi (SETFA) [5])	percentage damage caused to the plant, five point scale, POST Application SOLNI (Solanum nigrum (SOLNI) [6])	percentage damage caused to the plant, five point scale, PRE Application ALOMY [7]	percentage damage caused to the plant, five point scale, PRE Application AMARE [8]	percentage damage caused to the plant, five point scale, PRE Application ECHCG [9]	percentage damage caused to the plant, five point scale, PRE Application IPOHE [10]	percentage damage caused to the plant, five point scale, PRE Application SETFA (Setaria faberi (SETFA) [11])	percentage damage caused to the plant, five point scale, PRE Application SOLNI (Solanum nigrum (SOLNI) [12])
Cc1cc(C(=O)Nc2nnnn2C)c(=O)n(-c2ccc(Br)cc2)n1 [Compound 1.006]	5 (5=80-100%)	5 (5=80-100%)	5 (5=80-100%)	4 (4=60-79%)	5 (5=80-100%)	5 (5=80-100%)	5 (5=80-100%)	5 (5=80-100%)	5 (5=80-100%)	4 (4=60-79%)	5 (5=80-100%)	5 (5=80-100%)
Cc1cc(C(=O)Nc2nnnn2C)c(=O)n(-c2ccc(F)cc2)n1 [Compound 1.014]	5 (5=80-100%)	5 (5=80-100%)	5 (5=80-100%)	5 (5=80-100%)	5 (5=80-100%)	5 (5=80-100%)	5 (5=80-100%)	5 (5=80-100%)	5 (5=80-100%)	4 (4=60-79%)	5 (5=80-100%)	5 (5=80-100%)
Cc1cc(C(=O)Nc2nnnn2C)c(=O)n(-c2cc(Cl)ccc2C)n1 [Compound 1.019]	5 (5=80-100%)	5 (5=80-100%)	5 (5=80-100%)	5 (5=80-100%)	5 (5=80-100%)	5 (5=80-100%)	5 (5=80-100%)	5 (5=80-100%)	5 (5=80-100%)	5 (5=80-100%)	5 (5=80-100%)	5 (5=80-100%)
Cc1cc(C(=O)Nc2nnnn2C)c(=O)n(-c2ccc(Cl)cc2)n1 [Compound 1.012]	5 (5=80-100%)	5 (5=80-100%)	5 (5=80-100%)	5 (5=80-100%)	5 (5=80-100%)	5 (5=80-100%)	5 (5=80-100%)	5 (5=80-100%)	5 (5=80-100%)	3 (3=40-59%)	5 (5=80-100%)	5 (5=80-100%)
